The values below are quoted from earlier work in patent publication US20230233697A1, “CYTOTOXIC BENZODIAZEPINE DERIVATIVES” (priority 2014, published 2023).

For this series the following is noted: Phase I clinical evaluation; cited from earlier work.

Take `C=C1C[C@H]2C=Nc3cc(OCCCOc4cc5c(cc4OC)C(=O)N4CC(=C)C[C@H]4C=N5)c(OC)cc3C(=O)N2C1` [SJG-136]: the maximum tolerated dose was 45 μg/m^2.
